This note sets out measurements from patent US20030229451A1, “Methods and systems for analyzing complex biological systems” (priority 2001, published 2003).

Assay [1] has as its system Saccharomyces cerevisiae wild type strain BY4743. The experiment in a line: AF1 combined gene expression and metabolite mapping to reactions and pathways (KEGG). It is filed as cell-based. The text has this:
The pathway score indicates how meaningful the mapping is, or how likely it is to be correctly indicative of the pathway involved in the perturbation under examination. The method provides a pathway score based on perturbation levels of genes and/or compounds and the information content of each gene and/or compound in the pathway, i.e., a pathway score indicates the extent to which other pathways are mapped to a gene/compound. For example, imagine that two genes are perturbed in a particular experiment. One gene maps to only one pathway, giving a high degree of probability that the perturbed pathway is the one identified in the mapping. The second gene maps to three pathways. In the later example, there is only one-third the probability that the pathway identified in the mapping is the one perturbed. The present invention provides a method for calculating the pathway scores, so that more weight is given to a score of a gene or compound that maps to only one pathway than to a score of a gene or compound that maps to multiple pathways. […] Where n=the total number of genes in the pathway; ipath—count=the number of pathways containing a gene; and j=the number of genes in the pathway that are perturbed. Another factor to be considered when weighting a pathway score is the degree of perturbation. Degree of perturbation can be calculated, for example, based on a number of standard deviations from a norm, and included in an equation such as the one shown above, so that not only the number of pathways is taken into account, but also accounts for the amount of gene transcript or compound present as compared to a control. The data were then combined to determine the number of reactions showing an enzyme and at least one compound perturbed, and to determine the number of pathways having at least one enzyme and one perturbed compound perturbed. The results of the analysis are represented in Tables 16 and 17, and were difficult to interpret, illustrating that the ability to draw conclusions from compound mapping to pathways is limited when absent additional data.

For assay [2] the test system is unchanged. Description: AF1 gene expression analysis of yeast cells treated with antifungal drugs. It counts as cell-based. The conditions noted are these: for # Transcripts perturbed: 2x MIC, two hours; for # Pathways Affected by at Least One Gene: p < 0.05. The protocol:
Saccharomyces cerevisiae wild type strain BY4743 was purchased from American Type Culture Center (ATCC, Manassas, Va.). The yeast strain was grown in YPD or SD media. H. […] The cultures started from fresh single colonies were grown in 1.0 ml YPD overnight at 30° C. […] The OD600 was adjusted to 1.0 with YPD media, then 2.0 ml of each was inoculated into three 250 ml flasks, each containing 50 ml of SD media. […] The cells were kept growing for another two hours, then collected by centrifugation at 4000 rpm for 5 minutes at 4° C. Pellets were washed once with ice-cold water, then were lyophilized overnight at 4° C. […] Tubes were vortexed for 30 seconds, then incubated for 10 minutes at room temperature (RT). […] Tubes were incubated for 10 minutes at RT. Samples were centrifuged for 20 minutes as before. Pellets were washed with 400 μl 70% ethanol and centrifuged for 10 minutes as before. The pellet was then dissolved in 100 μl nuclease-free water. RNA quality was determined using the Bioanalyzer 2100 and the RNA 6000 assay (Agilent Technologies, Palo Alto, Calif.) according to manufacturer's instructions. RNA concentrations were determined spectrophotometrically by measuring the absorption at, 260 nm in an Ultrospec 2000 (Pharmacia Biotech, Piscataway, N.J.). […] Labeled cRNAs were evaluated using the RNA 6000 assay on the Agilent Bioanalyzer 2100. Labeled cRNA concentrations were determined spectrophotometrically by measuring the absorption at 260 nm in an Ultrospec 2000 (Pharmacia Biotech, Piscataway, N.J.). […] Each pair of samples to be hybridized were independently labeled and hybridized utilizing a fluor reversal for a total of two hybridizations per sample pair. The microarrays were scanned simultaneously in the Cy3 and Cy5 channels with Agilent's 48-slide, Dual Laser DNA Microarray Scanner (Agilent Technologies, Palo Alto, Calif.) at 10 μm resolution using default settings. Image Analysis Software (Version A.4.0.45, Agilent Technologies, Palo Alto, Calif.) was used for image analysis. Each feature was determined from an array's associated pattern file and a detection algorithm. Intensity values for each feature were determined after subtracting background derived from an average of negative control features. Features with unusual pixel intensity statistics (e.g., high non-uniformity, saturation in either channel, and the like) were excluded from downstream analyses. Data was loaded into the Rosetta RESOLVER database (Rosetta Inpharmatics Inc., Kirkland, Wash.) for storage and analysis. Data was evaluated after combining results from fluor reversal replicate hybridizations. The annotation of yeast ORFs was obtained from Proteome BIOKNOWLEDGE Library (Incyte Genomics, Palo Alto, Calif.). In AF1, two different technologies were utilized: gene expression analysis (for examination of mRNA expression) and metabolite analysis. […] As noted previously, existing metabolic databases may be helpful in practicing the methods and systems of the present invention, but many databases include limitations that make their use in data analysis and pathway mapping less than straightforward. […] This caveat to KEGG makes it difficult to pinpoint the correct pathway when attempting to link a gene to a specific pathway.

As to `C[C@@H]1[C@H](O)[C@@H](C)/C=C/C=C/C=C/C=C/C=C/C=C/C=C/[C@H](O[C@@H]2O[C@H](C)[C@@H](O)[C@H](N)[C@@H]2O)C[C@@H]2O[C@](O)(C[C@@H](O)C[C@@H](O)[C@H](O)CC[C@@H](O)C[C@@H](O)CC(=O)O[C@H]1C)C[C@H](O)[C@H]2C(=O)O` [Amphoteracin B], in assay [1], the “# Reactions Having an Enzyme and at Least One Compound Perturbed” value is given as 54; the “Number Of Pathways Having at Least One Enzyme and One Compound Perturbed (# Reactions)” value (“Number Of Pathways Having” for short) was 37. The “# Transcripts perturbed” value in assay [2] (P < 0.05) amounted to 4363. Besides, the “# Transcripts perturbed” value in assay [2] (P < 0.1) is 4652. Also, the “# Pathways Affected by at Least One Gene” value in assay [2] is recorded as 97.

In the case of `OC(Cn1cncn1)(Cn1cncn1)c1ccc(F)cc1F` [Fluconazole], in assay [1], the “# Reactions Having an Enzyme and at Least One Compound Perturbed” value amounted to 2; the “Number Of Pathways Having” value was 15. The “# Transcripts perturbed” value in assay [2] (P < 0.05) turned out to be 1411. The “# Transcripts perturbed” value in assay [2] (P < 0.1) is given as 1719. Moreover, the “# Pathways Affected by at Least One Gene” value in assay [2] is listed as 79.

Take `CC[C@@H]([C@H](C)O)n1ncn(-c2ccc(N3CCN(c4ccc(OC[C@@H]5CO[C@@](Cn6cncn6)(c6ccc(F)cc6F)C5)cc4)CC3)cc2)c1=O` [Posaconazole]: in assay [1], the “# Reactions Having an Enzyme and at Least One Compound Perturbed” value is given as 0; the “Number Of Pathways Having” value is recorded as 3. Further, the “# Transcripts perturbed” value in assay [2] (P < 0.05) amounted to 690. Further, in assay [2] (P < 0.1), the “# Transcripts perturbed” value worked out at 925. Besides, the “# Pathways Affected by at Least One Gene” value in assay [2] was 69.
